# Data taken from US11980209B2, “Consumables” (GIVAUDAN SA, priority 2007, dated 2024).
# Entries after “also recorded” stand apart in the source; their conditions may differ.
# Key:
# Assay type in all cases: in vivo, human
# [1] = system: perceived sweetness (sweet sensitive panelists); assay: Sweetness detection threshold of trilobatin in yoghurt (Example 8); conditions: for Sweetness of 500 ppm trilobatin sample: plain nonfat yoghurt
# Procedure: (§1) Trilobatin was tested by 6 sweet sensitive panelists in plain nonfat yoghurt.
# Yoghurt samples were 500 ppm trilobatin, 1% sucrose, and 2% sucrose. Panelists compared the 500 ppm trilobatin sample to each sucrose sample and compared the sweetness, the results are indicated in the table below.
# [2] = system: perceived sweetness (one panelist trained for sweetness detection); assay: Paired comparison of 20-100 ppm trilobatin versus 0-1% sucrose (Example 1a)
# Procedure: Trilobatin (20 ppm, 60 ppm, 100 ppm) in water samples were evaluated for isointensity to sucrose solutions in a concentration of 0, 0.5 and 1% sucrose using a paired comparison method. Samples were paired and tasted left to right with rinsing (water) in between, by one panelist trained for sweetness detection.
# The trilobatin samples were compared to either 0%, 0.5%, or 1% sucrose solutions.
# [3] = system: perceived sweet taste (sweet sensitive panelists); assay: Direct comparison of 100 ppm trilobatin in 7% sucrose with 7.5% sucrose solution (Example 2a); conditions: all of 8 sweet sensitive panelists
# [4] = system: perceived sweet taste (sweet sensitive panelists); assay: Ranking test with R-index, isointensity of 100 ppm trilobatin in 7% sucrose solution (Example 2a); conditions: for R-index: critical values 35.39-64.61%
# Procedure: The sensory evaluation was conducted using a ranking method. Samples at ambient temperature were randomly presented in 15 ml blind aliquots (unidentifiable by panelists). Panels consisted of 15 sweet sensitive subjects and samples were presented in 2 replications over 1 session. After tasting each sample, the mouth was rinsed thoroughly with water at ambient temperature prior to tasting the next sample. Panelists were presented with 7%, 8%, 9%, 10% and 11% sucrose solutions in water and a sixth sample of 100 ppm trilobatin in 7% sucrose. Subjects were asked to rank the samples from low to high with respect to perceived sweet taste. R-indices were calculated for 100 ppm trilobatin in 7% sucrose versus either 7%, 8%, 9%, 10% or 11% sucrose.
# [5] = system: perceived sweetness (sweet sensitive panelists); assay: Ranking test with R-index, sweetness of trilobatin (750 ppm) in yogurt (Example 13); conditions: for R-index: critical value 37.4 to 62.6%
# Procedure: The sucrose concentration isointense to 750 ppm trilobatin in a plain yogurt base was determined as follows.
# Samples contained a plain yogurt base with 750 ppm trilobatin, or the same plain yogurt base with sucrose in various concentrations (0%, 0.5%, 1.0%, 1.5%, and 2.0% sucrose).
# 30 ml of each yogurt sample was served cold, in random order, to 21 sweet sensitive panelists. In two replications over 1 session, panelists were asked to rank the samples from least sweet to most sweet. The data was subjected to an R-index analysis.
# [6] = system: perceived sweetness (sweet sensitive panelists); assay: Sweetness enhancement by trilobatin in cereals (Example 11); conditions: tested in whole milk, vs cereal with 1% added sucrose
# Procedure: Trilobatin was tested by 4 sweet sensitive panelists in cereal samples (cereals from Kix, General Mills; USA). The cereal is a comparatively low sugar product and contains 3 g sucrose per 30 g cereal. Panelists tested the samples in whole milk. To the cereal samples, sucrose was topically added by spraying the corresponding amount of a 10% sucrose solution in water to give 1%. The samples were baked at 250° C. for about 15 minutes in a convection oven to dry/remove the water. Similarly, trilobatin was applied to cereal samples as a 0.1% solution in 50/50 w/w ethanol/water to give various trilobatin concentrations (100 ppm, 200 ppm, 400 ppm).
# [7] = system: perceived sweetness (sweet sensitive panelists); assay: Sweetness enhancement by trilobatin in yoghurt (Example 9)
# Procedure: as §1
# Samples of 62.5 ppm, 125 ppm, and 500 ppm trilobatin in yoghurt sweetened with 5% sucrose were compared by panelists to a 5% sucrose sweetened yoghurt and a 7% sucrose sweetened yoghurt sample; the results are indicated in the table below.
# [8] = system: perceived sweet taste (sweet sensitive panelists); assay: Ranking test with R-index, isointensity of 100 ppm trilobatin in water (Example 1b); conditions: for R-index: critical values 35.39-64.61%
# Procedure: The sensory evaluation was conducted using a ranking method. Samples at ambient temperature were randomly presented in 15 ml blind aliquots (unidentifiable by panelists). Panels consisted of 15 sweet sensitive subjects and samples were presented in 2 replications over 1 session. After tasting each sample, the mouth was rinsed thoroughly with water at ambient temperature prior to tasting the next sample. Panelists were presented with 0.5%, 1%, 1.5% and 2% sucrose solutions in water and a fifth sample of 100 ppm trilobatin in water. Subjects were asked to rank the samples from low to high with respect to perceived sweet taste. R-indices were calculated for 100 ppm trilobatin versus either 0.5%, 1%, 1.5% or 2% sucrose.
# [9] = system: perceived sweet taste (sweet sensitive panelists); assay: Ranking test, isointensity of 200 ppm trilobatin in water (Example 1c)
# Procedure: The sensory evaluation was conducted using the method described in example 1b. The panels consisted of 7 sweet sensitive panelists. Panelists were presented with 0.5%, 1%, and 1.5% sucrose solutions in water and a fourth sample of 200 ppm trilobatin in water. Panelists were asked to rank the samples from low to high with respect to perceived sweet taste. 200 ppm trilobatin in water was determined to be isosweet to 1% sucrose.
# The sweetness detection threshold for individuals within the average consumer group varies from below 0.4% to 0.7% sucrose or more. All examples were performed with sweet sensitive panelists able to detect at least 0.5% sucrose or less. Extrapolating from examples 1 a, b, and c, the concentration detectable by the average consumer will therefore be higher, and the average concentration near the sweetness detection threshold of the average consumer will be about 100 to 200 ppm.
# [10] = 100 ppm trilobatin in water vs 0.5% sucrose
# [11] = 100 ppm trilobatin in 7% sucrose
# [12] = 750 ppm TL in plain yogurt vs 0% sucrose yogurt
# [13] = 750 ppm TL in plain yogurt vs 0.5% sucrose yogurt
# [14] = 750 ppm TL in plain yogurt vs 1% sucrose yogurt
# [15] = 750 ppm TL in plain yogurt vs 1.5% sucrose yogurt
# [16] = 750 ppm TL in plain yogurt vs 2% sucrose yogurt
# [17] = 62.5 ppm trilobatin in yoghurt sweetened with 5% sucrose
# [18] = 125 ppm trilobatin in yoghurt sweetened with 5% sucrose
# [19] = 500 ppm trilobatin in 5% sucrose yoghurt
structure (smiles),measurement,setting,value
"O=C(CCc1ccc(O)cc1)c1c(O)cc(O[C@@H]2O[C@H](CO)[C@@H](O)[C@H](O)[C@H]2O)cc1O [trilobatin, 1-[4-(beta-D-glucopyranosyloxy)-2,6-dihydroxyphenyl]-3-(4-hydroxyphenyl)-1-propanone]",own sweetness equivalent to sucrose,[1]; 500 ppm trilobatin in yoghurt,1 % sucrose
same,Sweetness of 500 ppm trilobatin sample,[1]; vs 1% sucrose yoghurt sample,slightly less sweet/similarly sweet
same,Sweetness of 500 ppm trilobatin sample,[1]; vs 2% sucrose yoghurt sample,less sweet
same,Taste of trilobatin samples compared to sucrose,[2]; 20 ppm trilobatin in water vs 0% sucrose,isosweet
same,Taste of trilobatin samples compared to sucrose,[2]; 20 ppm trilobatin in water vs 0.5% sucrose,notably less sweet
same,"isointensity to sucrose, by interpolation",[2]; 60 ppm trilobatin in water,0.25 % sucrose
same,Taste of trilobatin samples compared to sucrose,[2]; 60 ppm trilobatin in water vs 0% sucrose,weakly sweeter
same,Taste of trilobatin samples compared to sucrose,[2]; 60 ppm trilobatin in water vs 0.5% sucrose,less sweet
same,Taste of trilobatin samples compared to sucrose,[2]; 100 ppm trilobatin in water vs 0% sucrose,sweeter
same,Taste of trilobatin samples compared to sucrose,[2]; [10],isosweet
same,Taste of trilobatin samples compared to sucrose,[2]; 100 ppm trilobatin in water vs 1% sucrose,less sweet
same,taste in direct comparison with 7.5% sucrose solution,[3],significantly sweeter
same,added sucrose sweetness intensity,[4]; [11],1 ° Brix
same,expected isointensity to sucrose assuming a merely additive effect,[4]; [11],7.5 % sucrose
same,isointensity to sucrose,[4]; [11],8 % sucrose
same,R-index,[4]; 100 ppm trilobatin in 7% sucrose vs 7% sucrose,79%
same,R-index,[4]; 100 ppm trilobatin in 7% sucrose vs 8% sucrose,38%
same,R-index,[4]; 100 ppm trilobatin in 7% sucrose vs 9% sucrose,12%
same,R-index,[4]; 100 ppm trilobatin in 7% sucrose vs 10% sucrose,1%
same,R-index,[4]; 100 ppm trilobatin in 7% sucrose vs 11% sucrose,0%
same,sample sweetness (7% sucrose + 100 ppm trilobatin),[4]; vs 7% sucrose solution,Sweeter
same,sample sweetness (7% sucrose + 100 ppm trilobatin),[4]; vs 8% sucrose solution,Isosweet
same,sample sweetness (7% sucrose + 100 ppm trilobatin),[4]; vs 9% sucrose solution,Less sweet
same,sample sweetness (7% sucrose + 100 ppm trilobatin),[4]; vs 10% sucrose solution,Less sweet
same,sample sweetness (7% sucrose + 100 ppm trilobatin),[4]; vs 11% sucrose solution,Less sweet
same,sweetness TL sample,[5]; [12],sweeter
same,R-index,[5]; [12],82.6%
same,sweetness TL sample,[5]; [13],isosweet
same,R-index,[5]; [13],58.5%
same,sweetness TL sample,[5]; [14],less
same,R-index,[5]; [14],14.7%
same,sweetness TL sample,[5]; [15],less
same,R-index,[5]; [15],4.4%
same,sweetness TL sample,[5]; [16],less
same,R-index,[5]; [16],3.3%
same,isointensity to sucrose,[5]; 750 ppm trilobatin in plain yogurt,0.5 % sucrose
same,Sweetness trilobatin sample,[6]; 100 ppm trilobatin on cereal,less sweet than 1% sucrose
same,Sweetness trilobatin sample,[6]; 200 ppm trilobatin on cereal,sweeter than 1% sucrose
same,Sweetness trilobatin sample,[6]; 400 ppm trilobatin on cereal,"much sweeter than 1% sucrose,; also recorded: too sweet"
same,sweetness trilobatin compared to 5% sucrose sample,[7]; [17],+ sweeter
same,sweetness trilobatin compared to 7% sucrose sample,[7]; [17],less sweet
same,sweetness trilobatin compared to 5% sucrose sample,[7]; [18],++ sweeter
same,sweetness trilobatin compared to 7% sucrose sample,[7]; [18],less sweet
same,sucrose level that the 5% sucrose sample tastes like,[7]; [19],7%
same,sweetness enhancement effect equivalent to added sucrose,[7]; [19],1 % sucrose
same,"sample sweetness (trilobatin, 100 ppm)",[8]; 100 ppm in water vs 0.5% sucrose solution,Isosweet
same,"sample sweetness (trilobatin, 100 ppm)",[8]; 100 ppm in water vs 1.0% sucrose solution,Less sweet
same,"sample sweetness (trilobatin, 100 ppm)",[8]; 100 ppm in water vs 1.5% sucrose solution,Less sweet
same,"sample sweetness (trilobatin, 100 ppm)",[8]; 100 ppm in water vs 2.0% sucrose solution,Less sweet
same,isointensity to sucrose,[8]; 100 ppm trilobatin in water,0.5 % sucrose
same,R-index,[8]; [10],44%
same,R-index,[8]; 100 ppm trilobatin in water vs 1.0% sucrose,13%
same,R-index,[8]; 100 ppm trilobatin in water vs 1.5% sucrose,0%
same,R-index,[8]; 100 ppm trilobatin in water vs 2.0% sucrose,0%
same,isointensity to sucrose,[9]; 200 ppm trilobatin in water,1 % sucrose
same,average concentration near the sweetness detection threshold of the average consumer,"[9]; extrapolating from examples 1a, b and c",100 to 200 ppm
